Test results from patent US20220119375A1, “3-ARYLOXY-3-ARYL-PROPYLAMINE COMPOUND AND USES THEREOF” (Zhangzhou Pien Tze Huang Pharmaceutical Co., Ltd., priority 2018, published 2022).
Where two headings read alike, the source gives them in different places.

Assays:
TRPA1 = molecular target: T1, TRPA1 (Mus musculus, UniProt Q8BLA8); assay: IonWorks Barracuda (IWB) automated patch clamp detection of TRPA1 inhibitory activity; type: cell-based, mouse (mTRPA1); conditions: for IC50: automated patch clamp (IWB)
T1 construct: expressed in transfected cells; host or cells: HEK293
T1 sequence (Q8BLA8 whole entry): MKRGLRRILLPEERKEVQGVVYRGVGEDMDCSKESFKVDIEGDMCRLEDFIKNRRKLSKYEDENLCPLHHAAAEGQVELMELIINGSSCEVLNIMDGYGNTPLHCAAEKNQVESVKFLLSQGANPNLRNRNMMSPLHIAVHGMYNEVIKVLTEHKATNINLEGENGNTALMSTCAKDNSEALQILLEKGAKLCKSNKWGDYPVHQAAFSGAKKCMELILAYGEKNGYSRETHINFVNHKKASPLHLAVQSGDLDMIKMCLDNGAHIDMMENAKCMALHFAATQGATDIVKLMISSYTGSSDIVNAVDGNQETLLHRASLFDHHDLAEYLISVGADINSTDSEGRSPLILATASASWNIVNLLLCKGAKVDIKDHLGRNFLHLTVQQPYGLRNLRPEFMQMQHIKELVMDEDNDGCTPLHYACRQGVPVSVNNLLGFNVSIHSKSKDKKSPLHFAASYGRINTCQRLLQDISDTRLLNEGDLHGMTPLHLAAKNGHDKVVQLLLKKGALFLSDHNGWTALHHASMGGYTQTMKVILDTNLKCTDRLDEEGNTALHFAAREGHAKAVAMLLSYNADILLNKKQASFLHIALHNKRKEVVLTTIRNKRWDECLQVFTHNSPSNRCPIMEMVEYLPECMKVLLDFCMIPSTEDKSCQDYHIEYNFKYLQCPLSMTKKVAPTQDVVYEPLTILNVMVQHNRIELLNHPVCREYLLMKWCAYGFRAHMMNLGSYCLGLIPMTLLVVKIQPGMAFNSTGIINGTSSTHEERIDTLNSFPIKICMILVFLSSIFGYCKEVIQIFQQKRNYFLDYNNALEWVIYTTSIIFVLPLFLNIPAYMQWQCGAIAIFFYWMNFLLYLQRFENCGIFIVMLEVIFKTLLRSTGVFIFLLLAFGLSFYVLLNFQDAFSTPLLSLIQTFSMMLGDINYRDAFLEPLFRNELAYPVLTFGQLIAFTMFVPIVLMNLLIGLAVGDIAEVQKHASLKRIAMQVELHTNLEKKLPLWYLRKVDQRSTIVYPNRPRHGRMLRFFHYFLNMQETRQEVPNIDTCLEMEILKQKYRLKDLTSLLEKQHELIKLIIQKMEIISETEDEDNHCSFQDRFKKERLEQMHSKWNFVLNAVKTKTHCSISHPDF
Procedure: The inhibitory activity of some compounds in the Examples of present invention on transient receptor potential channel protein TRPA1 was tested in this example. The compound of formula A (WO2010075353) was used as a positive control compound: […]
IonWorks Barracuda (IWB) automated patch clamp detection was used as test method: HEK293 cells stably expressing TRPA1 were placed in DMEM medium containing 15 μg/mL Blasticidin S HCl, 200 μg/mL Hygromycin B and 10% FBS in the T175 culture flask, and cultured in 37° C., 5% CO2 incubator. When the cell density reached about 80%, the culture medium was removed, rinsed with phosphate buffered saline (PBS) without calcium and magnesium. 3 mL of Trypsin was added to digest for 2 min, 7 mL of culture medium was added to terminate the digestion. The cells were collected to 15 mL centrifuge tube and centrifuged at 800 rpm for 3 min. After the supernatant was removed, the cells were added to appropriate volume of extracellular fluid for re-suspending, and the cell density was controlled at 2-3×10^6/mL for IWB experiment. Extracellular fluid formulation (in mM): 140 NaCl, 5 KCl, 1 MgCl2, 10 HEPES, 0.5 EGTA, 10 Glucose (pH 7.4); intracellular fluid formulation (in mM): 140 CsCl, 10 HEPES, 5 EGTA, 0.1 CaCl2, 1 MgCl2 (pH 7.2). 28 mg/mL of amphotericin B was freshly prepared with DMSO on the day of experiment, and then final concentration of 0.1 mg/mL was prepared with intracellular fluid.
Population patch clamp (PPC) plate was used in IWB experiment. The entire detection process was automatically carried out by the instrument. Extracellular fluid was added into 384 wells of PPC plate, and 6 µL of the intracellular fluid was added into plenum (under the PPC plate), 6 µL of cell fluid was added for sealing test, and finally the intracellular fluid in plenum was replaced with amphotericin B-containing intracellular fluid to establish a whole-cell recording mode after perforating sealed cells. The sampling frequency for recording TPRA1 current was 10 kHz, the cells were clamped at 0 mV, the voltage stimulation command (channel protocol) was a ramp voltage from −100 mV to +100 mV for 300 ms. This voltage stimulation was applied every 10 s, mTRPA1 current was induced by 300 µM AITC.
Data recording and current amplitude measurement export were carried out by IWB software (version 2.5.3, Molecular Devices Corporation, Union City, Calif.). No statistics was recorded for holes with sealing impedance lower than 20 MΩ. The original current data was corrected by software for leakage reduction. TRPA1 current amplitude was measured at +100 mV. […] If IC50 value of HC030031 exceeded 3 times the average IC50 value previously obtained on each plate, it would be re-tested. The dose-effect curve of compounds and IC50 were fitted and calculated by GraphPad Prism 5.02 (GraphPad Software, San Diego, Calif.).

human TRPA1 channel = molecular target: T2, human TRPA1 channel (Homo sapiens, UniProt O75762); assay: manual patch clamp detection of TRPA1 inhibitory activity; type: cell-based
T2 construct: expressed in transfected cells; host or cells: HEK293
T2 sequence (O75762 whole entry): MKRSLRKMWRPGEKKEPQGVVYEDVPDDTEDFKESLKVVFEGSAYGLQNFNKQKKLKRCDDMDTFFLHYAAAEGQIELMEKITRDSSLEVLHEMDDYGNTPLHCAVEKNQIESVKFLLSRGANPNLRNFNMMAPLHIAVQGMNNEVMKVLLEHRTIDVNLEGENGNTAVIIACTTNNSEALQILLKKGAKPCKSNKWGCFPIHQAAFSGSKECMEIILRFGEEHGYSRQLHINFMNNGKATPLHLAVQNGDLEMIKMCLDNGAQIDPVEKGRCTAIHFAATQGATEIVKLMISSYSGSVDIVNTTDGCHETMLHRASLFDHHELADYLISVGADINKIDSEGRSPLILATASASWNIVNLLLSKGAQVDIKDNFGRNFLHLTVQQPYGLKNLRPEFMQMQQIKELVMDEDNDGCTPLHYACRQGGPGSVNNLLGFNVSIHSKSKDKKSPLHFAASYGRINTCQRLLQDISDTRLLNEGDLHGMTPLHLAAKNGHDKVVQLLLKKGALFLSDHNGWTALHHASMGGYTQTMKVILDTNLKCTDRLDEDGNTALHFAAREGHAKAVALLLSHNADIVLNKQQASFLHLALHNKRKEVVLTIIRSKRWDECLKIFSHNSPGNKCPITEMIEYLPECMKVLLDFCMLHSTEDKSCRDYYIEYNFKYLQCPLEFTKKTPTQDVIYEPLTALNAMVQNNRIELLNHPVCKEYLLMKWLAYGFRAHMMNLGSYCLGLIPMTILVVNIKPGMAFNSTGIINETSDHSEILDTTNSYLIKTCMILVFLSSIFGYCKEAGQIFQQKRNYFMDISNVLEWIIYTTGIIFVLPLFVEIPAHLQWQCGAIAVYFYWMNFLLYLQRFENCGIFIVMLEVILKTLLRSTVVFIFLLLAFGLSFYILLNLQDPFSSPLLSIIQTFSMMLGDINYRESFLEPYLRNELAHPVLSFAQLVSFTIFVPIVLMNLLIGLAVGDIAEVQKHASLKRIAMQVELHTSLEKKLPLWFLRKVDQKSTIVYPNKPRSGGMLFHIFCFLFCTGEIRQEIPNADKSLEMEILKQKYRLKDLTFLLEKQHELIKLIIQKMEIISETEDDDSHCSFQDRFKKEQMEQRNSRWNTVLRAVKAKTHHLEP
Procedure: The HEK293 cell line stably expressing human TRPA1 channel was placed in T75 culture flask with DMEM medium containing 15 μg/mL Blasticidin S HCl, 200 μg/mL Hygromycin B and 10% FBS, and cultured in incubator at 37° C. and 5% CO2. When the cell density reached about 80%, the culture medium was removed, the residue was rinsed with phosphate buffered saline (PBS) without calcium and magnesium. 2 mL of trypsin was added to digest for 2 minutes, and 8 mL of culture medium was added to terminate the digestion. The cells were collected to 15 mL centrifuge tube and centrifuged at 800 rpm for 3 min. After the supernatant was removed, an appropriate volume of extracellular fluid was added to re-suspend the cells.
In manual patch clamp detection, HEKA system (Patch Master software) was used together with EPC-10 amplifier to record the whole cell current of TRPA1 stably transfected cell line at room temperature. intracellular fluid formulation for whole cell recording was as follows (mM): 140 CsCl, 10 HEPES, 5 EGTA, 0.1 CaCl2, 1 MgCl2 (pH 7.2, osmotic pressure 295-300 mOsm); Ca^2+-free extracellular fluid formulation for recording was as follows (mM): 140 NaCl, 5 KCl, 0.5 EGTA, 1 MgCl2, 10 Glucose, 10 HEPES (pH 7.4, osmotic pressure 300-310 mOsm). Glass microelectrode resistance used for patch clamp recording was 2-4 MΩ, the sampling frequency was 10 kHz, the filter frequency was 2.9 kHz, the cell clamp was 0 mV, and the voltage stimulation command (channel protocol) was a linear voltage from −100 mV to +100 mV for 300 ms, then restored to 0 mV clamping potential. The recording was performed every 2 s. The hTRPA1 current was induced by 100 μM AITC. To ensure the accuracy of current recording, the series resistance was used for 60% compensation during recording.
Data recording and current amplitude measurement export were completed by Patch Master software. Cells with sealing impedance lower than 500 MΩ, w were not included in the statistics. The original current data were corrected by software for leakage reduction, and the hTRPA1 current amplitude was measured at +100 mV. The compound dose-effect curve and IC50 were fitted and calculated by GraphPad Prism 5.02 (GraphPad Software, San Diego, Calif.).

[1] = system: C57BL/6 mice, formalin pain model; assay: mice formalin pain model (Example 44); type: in vivo, mouse; conditions: 20 mg/kg intraperitoneal, phase I (0-10 min) and phase II (10-60 min), vs saline group
Procedure: Before the start of experiment, the mice were allowed to adapt to the experimental environment for 72 h without fasting. The test drug was administrated by intraperitoneal injection at a dose of 20 mg/kg, and then the mice were placed in a transparent, ventilated plexiglass cylinder for 1 h, and then 20 μl of 4% formalin solution was injected into the left hind plantar of mice of each group by microinjector. The claw pain response of mice was real-time recorded by miniature camera. The number of times of lifting (1 min/time), shaking (2 min/time), and licking (3 min/time) left claw and the time length of licking left claw were used as indicators of pain response, the cumulative scoring and licking time in two stages of 0-10 min (phase I, acute pain phase) and 10-60 min (phase II, inflammatory pain phase) were observed and recorded, and the statistical analysis was conducted.

[2] = system: C57 mice, hot plate pain model; assay: mice hot plate pain model; type: in vivo, mouse; conditions: 10 mg/kg intraperitoneal, hot plate 55±0.1° C., within 60 minutes
Procedure: SPF-grade C57 male mice were placed at hot plate with constant 55±0.1° C. […] If the pain reaction of mice was observed, the mice were taken out immediately to prevent mice from scalding. […] The test compounds were freshly prepared on the day of administration. 0.9% NaCl physiological saline solution was prepared as solvent for later use. Appropriate amount of test compounds were added into required volume of physiological saline and fully suspended, and the concentration of the drug compound in preparation was 1 mg/ml. The standard volume of administration to mice was 10 ml/kg (or 0.1 ml/10 g). […] The administration volume was 10 ml/kg. […] Hot plate observation index: the reaction time of mice on the hot plate at 55±0.1° C. (Time latency). Measurement and recording were conducted at 3 h before administration and 15 min, 30 min, and 60 min after administration. Maximum possible effect (MPE) % was used to evaluate analgesic effect of each compound, i.e., MPE %=[(Post drug latency-baseline latency)/(30-baseline latency)]×100. MPE % at different time points was recorded. The higher the value of MPE % was, the stronger the analgesic effect of the compound was.

[3] = system: ICR mice, acetic acid writhing pain model; assay: mice acetic acid writhing pain model; type: in vivo, mouse; conditions: 10 mg/kg by gavage, within 30 min; saline group 49 times
Procedure: Male ICR mice, weighed 22-25 g, were fasted but allowed to drink water freely for 2 h before administration. All ICR mice were weighed and grouped randomly, and the number of animals in each group was >10. […] The test compound was IC-1 (the compound prepared in Example 9), and the administration dosages were 5 mg/kg and 10 mg/kg. […] When concave abdomen, stretched trunk and hind claw, and high buttocks appeared, one number point was recorded. […] After administration, the fewer visceral pains in the mice were, the stronger the analgesic effect of the compound was.

[4] = HEK293 cells stably expressing TRPA1, AITC-induced current at +100 mV, read-out: IC50 (μM) on TRPA1 in the patch clamp detection test

IC50 (TRPA1; [4]) [µM]	IC50 (TRPA1; read-out: IC50 on TRPA1) [µM]	SMILES	other results
5 to 10		CNCC[C@H](Oc1cccc2ccoc12)c1ccsc1 [Compound IC-2, (S)-3-(benzofuran-7-yloxy)-N-methyl-3-(thiophen-3-yl)propyl-1-amine]	
1 to 5	< 5	CNCC[C@H](Oc1cccc2ccoc12)c1ccoc1 [Compound IC-3, (S)-3-(benzofuran-7-yloxy)-N-methyl-3-(furan-3-yl)propyl-1-amine]	
1 to 5	< 5	CNCC[C@H](Oc1cccc2ccoc12)c1ccco1 [Compound IC-4, (S)-3-(benzofuran-7-yloxy)-N-methyl-3-(furan-2-yl)propyl-1-amine]	
1 to 5	< 5	CN(C)CC[C@H](Oc1cccc2ccoc12)c1cccs1 [Compound IC-8, (S)-3-(benzofuran-7-yloxy)-N,N-dimethyl-3-(thiophen-2-yl)propyl-1-amine]	
5 to 10		CNCC[C@H](Oc1cccc2c1CCC2)c1cccs1 [Compound IC-10, (S)-3-(2,3-dihydro-1H-inden-4-yloxy)-N-methyl-3-(2-thienyl)propyl-1-amine]	the IC50 of compound C1/the IC50 of compound IC-10 (TRPA1; TRPA1, automated patch clamp): about 2.5 fold; IC50 (human TRPA1 channel; HEK293 stably expressing human TRPA1, 100 μM AITC, +100 mV): 1.12 µM; ratio of IC50 of S configuration of duloxetine to IC50 of the compound, manual patch clamp (human TRPA1 channel; manual patch clamp): 3.9; analgesic activity, licking time [1]: almost completely inhibited licking claw behavior caused by pain; analgesic effect (MPE %) on hot plate [2]: stronger than those of gabapentin and duloxetine
1 to 5	< 5	NCC[C@H](Oc1cccc2ccoc12)c1cccs1 [Compound IC-23, (S)-3-(benzofuran-7-yloxy)-3-(thiophen-2-yl) propyl-1-amine]	analgesic effect (MPE %) on hot plate [2]: very potent analgesic effect
1 to 5	< 5	NCC[C@H](Oc1cccc2ccoc12)c1ccoc1 [Compound IC-24, (S)-3-(benzofuran-7-yloxy)-3-(furan-3-yl)propyl-1-amine]	
1 to 5		NCC[C@H](Oc1cccc2ccoc12)c1ccco1 [Compound IC-25, (S)-3-(benzofuran-7-yloxy)-3-(furan-2-yl) propyl-1-amine]	
5 to 10		NCC[C@H](Oc1cccc2ccoc12)c1ccsc1 [Compound IC-26, (S)-3(benzofuran-7-yloxy)-3-(thiophen-3-yl) propyl-1-amine]	
5 to 10		CNCC[C@H](Oc1cccc2ccoc12)c1cnco1 [Compound IC-29, (S)-3-(benzofuran-7-yloxy)-N-methyl-3-(oxazol-5-yl)propyl-1-amine]	
		CN1[C@H]2C[C@H](OC(=O)[C@H](CO)c3ccccc3)C[C@@H]1[C@@H](O)C2 [anisodamine, reference compound]	number of appearance of writhing reaction [3]: 27 times
		COc1ccc2c(c1)c(CC(=O)O)c(C)n2C(=O)c1ccc(Cl)cc1 [indomethacin, reference compound]	number of appearance of writhing reaction [3]: 28 times

SMILES	IC50 (TRPA1; [4]) [µM]	IC50 (TRPA1; read-out: IC50 on TRPA1) [µM]	other results
CNCC[C@H](Oc1cccc2ccccc12)c1cccs1 [Duloxetine (R configuration), Duloxetine, reference compound]	20 to 50	48.5	
